pIC50: −log10 of the molar value. Read-outs that look alike come from different tables or passages of the source.
Columns and labels:
MCF-7 = assay: Cytotoxicity assay (SRB), MCF-7; type: cell-based; settings: Homo sapiens, MCF7, 72 h, MCF-7 cells, SRB, read-out: In Vitro Cellular Activity IC50 MCF-7
Summary of the method: (§1)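 Overnight-seeded monolayers (4000–12000 cells/well by line) receive compound in 5% FBS medium at 37 °C, 7% CO2. After 3 d, or 6 d for BT474, cellular protein is fixed with cold TCA, stained with SRB and read at 540 nm against untreated wells.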

HCT-116 = assay: Cytotoxicity assay (SRB), HCT-116; type: cell-based; settings: Homo sapiens, HCT-116, 72 h, HCT116 cells, SRB, read-out: In Vitro Cellular Activity IC50 HCT116
Summary of the method: as §1

cyclin D1/cdk 4 enzyme = target: T1, cyclin D1/cdk 4 enzyme (Homo sapiens, UniProt P11802); assay: CDK4 ELISA kinase assay (phospho-Rb ser 795 detection); type: biochemical
T1 construct: made in house; host or cells: Sf9 insect cells, recombinant baculovirus
T1 sequence (P11802 whole entry, species assumed): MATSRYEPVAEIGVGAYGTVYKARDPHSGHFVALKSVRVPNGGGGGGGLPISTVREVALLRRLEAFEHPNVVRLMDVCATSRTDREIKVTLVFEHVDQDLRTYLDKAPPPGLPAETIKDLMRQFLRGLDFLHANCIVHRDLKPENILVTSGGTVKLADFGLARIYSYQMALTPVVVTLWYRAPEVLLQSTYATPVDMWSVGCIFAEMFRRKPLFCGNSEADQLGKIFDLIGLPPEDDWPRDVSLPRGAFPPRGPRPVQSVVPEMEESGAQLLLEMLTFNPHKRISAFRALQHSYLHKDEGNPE
T1 sequence (P24385 whole entry partner, species assumed): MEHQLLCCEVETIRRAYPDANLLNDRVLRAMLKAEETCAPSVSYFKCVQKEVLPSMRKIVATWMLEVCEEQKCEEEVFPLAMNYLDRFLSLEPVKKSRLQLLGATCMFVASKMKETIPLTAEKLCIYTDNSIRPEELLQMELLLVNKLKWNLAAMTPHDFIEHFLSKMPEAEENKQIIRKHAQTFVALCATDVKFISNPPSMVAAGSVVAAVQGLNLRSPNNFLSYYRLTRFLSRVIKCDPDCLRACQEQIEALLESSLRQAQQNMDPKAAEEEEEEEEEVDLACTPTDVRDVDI
Summary of the method: (§2)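 Screening was done at 10 ug/ml compound. Each partially purified cyclin/CDK complex, produced in baculovirus-infected Sf9 cells, phosphorylated a coated GST-Rb C-terminal fragment with 200 μM ATP, and Ser795 phosphorylation was quantified by HRP-ELISA at 450 nm.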

cyclin B/CDK1 enzyme = target: T2, cyclin B/CDK1 enzyme (Homo sapiens, UniProt P06493); assay: CDK1 ELISA kinase assay (phospho-Rb ser 795 detection); type: biochemical
T2 construct: purchased New England BioLabs; host or cells: Sf9 insect cells, recombinant baculovirus
T2 sequence (P06493 whole entry): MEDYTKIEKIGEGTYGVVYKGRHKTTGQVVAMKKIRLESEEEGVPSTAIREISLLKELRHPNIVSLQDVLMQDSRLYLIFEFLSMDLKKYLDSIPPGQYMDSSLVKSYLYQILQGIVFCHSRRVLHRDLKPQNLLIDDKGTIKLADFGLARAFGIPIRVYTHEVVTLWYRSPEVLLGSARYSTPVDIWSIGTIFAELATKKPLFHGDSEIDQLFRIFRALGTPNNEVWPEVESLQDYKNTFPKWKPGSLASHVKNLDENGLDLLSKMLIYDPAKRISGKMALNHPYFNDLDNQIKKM
T2 sequence (P14635 whole entry partner): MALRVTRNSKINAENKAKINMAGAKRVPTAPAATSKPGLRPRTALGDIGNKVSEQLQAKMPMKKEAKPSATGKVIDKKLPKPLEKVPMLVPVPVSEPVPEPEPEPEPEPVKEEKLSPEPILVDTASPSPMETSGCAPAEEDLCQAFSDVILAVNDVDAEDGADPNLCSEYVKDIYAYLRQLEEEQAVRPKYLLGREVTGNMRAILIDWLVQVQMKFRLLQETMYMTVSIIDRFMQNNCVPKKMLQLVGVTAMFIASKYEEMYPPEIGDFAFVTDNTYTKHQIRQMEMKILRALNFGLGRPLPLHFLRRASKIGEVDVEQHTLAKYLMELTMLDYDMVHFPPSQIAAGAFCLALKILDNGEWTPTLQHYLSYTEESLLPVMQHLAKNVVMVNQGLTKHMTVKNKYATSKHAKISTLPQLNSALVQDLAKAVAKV
Summary of the method: as §2

cyclin E/CDK2 enzyme = target: T3, cyclin E/CDK2 enzyme (Homo sapiens, UniProt P24941); assay: CDK2 ELISA kinase assay (phospho-Rb ser 795 detection); type: biochemical
T3 construct: made in house; host or cells: Sf9 insect cells, recombinant baculovirus
Summary of the method: as §2

BT474 = assay: Cytotoxicity assay (SRB), BT474; type: cell-based
Summary of the method: as §1

LoVo = assay: Cytotoxicity assay (SRB), LoVo; type: cell-based; settings: Homo sapiens, LoVo, 72 h, LoVo cells, SRB, read-out: In Vitro Cellular Activity IC50 LOVO
Summary of the method: as §1

[1] = Homo sapiens, BT-474, 144 h, BT474 cells, 6 days, SRB; read-out: In Vitro Cellular Activity IC50 BT474
[2] = In Vitro Enzyme Assays, 200 μM ATP, read-out: CDK4 IC50
[3] = In Vitro Enzyme Assays, read-out: CDK1 IC50
[4] = In Vitro Enzyme Assays, read-out: CDK2 IC50
[5] = Homo sapiens, BT-474, 144 h, BT474 cells, SRB, 6 days; read-out: In Vitro Cellular Activity IC50 BT474

Compound | melting point | pIC50 (MCF-7; 3 days) | pIC50 (HCT-116; 3 days) | pIC50 (cyclin D1/cdk 4 enzyme; In Vitro Enzyme Assay, cyclin D1/cdk 4, read-out: CDK4 IC50) | pIC50 (cyclin B/CDK1 enzyme; In Vitro Enzyme Assay, cyclin B/CDK1, read-out: CDK1 IC50) | pIC50 (cyclin E/CDK2 enzyme; In Vitro Enzyme Assay, cyclin E/CDK2, read-out: CDK2 IC50) | pIC50 (BT474; [1]) | pIC50 (LoVo; 3 days) | pIC50 (MCF-7; three days) | pIC50 (HCT-116; three days) | pIC50 (cyclin D1/cdk 4 enzyme; [2]) | pIC50 (cyclin B/CDK1 enzyme; [3]) | pIC50 (cyclin E/CDK2 enzyme; [4]) | pIC50 (BT474; [5]) | pIC50 (LoVo; three days)
O=C1NC(=O)c2ccc(I)cc2/C1=C/NCc1ccc(-n2cccc2)c(O)c1 [Example 514, (4Z)-4-({[3-Hydroxy-4-(1H-pyrrol-1-yl)benzyl]amino}methylene)-6-iodoisoquinoline-1,3(2H,4H)-dione] | 230 to 231 °C | 5.65 | 5.98 | 7.22 | < 4.30 | 4.80 | 6.23 | 6.13 |  |  |  |  |  |  | 
COC[C@@H]1CCCN1Cc1ccc(N/C=C2\C(=O)NC(=O)c3ccc(-c4ccc(F)cc4)cc32)cc1 [Example 299, (4Z)-6-(4-Fluorophenyl)-4-{[(4-{[(2S)-2-(methoxymethyl)pyrrolidin-1-yl]methyl}phenyl)amino]methylene}isoquinoline-1,3(2H,4H)-dione] | 162 to 163 °C |  |  |  |  |  |  |  | 6.10 | 5.52 | 6.72 | < 4.30 | < 4.30 | 5.70 | 5.11
CN1CCN(c2ccc(N/C=C3\C(=O)N(CO)C(=O)c4ccc(Br)cc43)cc2)CC1 [Example 220, (4Z)-6-Bromo-2-(hydroxymethyl)-4-({[4-(4-methylpiperazin-1-yl)phenyl]amino}methylene)isoquinoline-1,3(2H,4H)-dione] | 141 to 142 °C |  |  |  |  |  |  |  | 5.62 | 5.49 | 5.48 | < 4.30 | < 4.30 | 5.48 | 5.42
CN1CCN(c2ccc(N/C=C3\C(=O)NC(=O)c4ccc(Br)cc43)cc2F)CC1 [Example 288, (4Z)-6-Bromo-4-({[3-fluoro-4-(4-methylpiperazin-1-yl)phenyl]amino}methylene)-isoquinoline-1,3(2H,4H)-dione] | 206 to 207 °C |  |  |  |  |  |  |  | 5.82 | 5.77 | 5.54 | < 4.30 | < 4.30 | 5.74 | 5.70
COc1ccc(CN/C=C2\C(=O)NC(=O)c3ccc(-c4cn[nH]c4)cc32)cc1O [Example 136, (4Z)-4-{[(3-Hydroxy-4-methoxybenzyl)amino]methylene}-6-(1H-pyrazol-4-yl)isoquinoline-1,3(2H,4H)-dione] | 252 to 253 °C |  |  |  |  |  |  |  | 4.32 | 4.60 | 8.30 | 5.40 | 6.37 | 4.80 | 4.44
CO[C@@H]1CCN(Cc2ccc(N/C=C3\C(=O)NC(=O)c4ccc(Br)cc43)cc2)C1 [Example 266, (4Z)-6-Bromo-4-{[(4-{[(3R)-3-methoxypyrrolidin-1-yl]methyl}phenyl)amino]methylene}isoquinoline-1,3(2H,4H)-dione] | 132 to 133 °C |  |  |  |  |  |  |  | 5.40 | 5.21 | 5.72 | < 4.30 | < 4.30 | 5.04 | 5.08
O=C1NC(=O)c2ccc(I)cc2/C1=C/Nc1ccc(CN2CCCCC2CO)cc1 (stereo not shown) [Example 439, (4Z)-4-{[(4-{[2-(Hydroxymethyl)piperidin-1-yl]methyl}phenyl)amino]methylene}-6-iodoisoquinoline-1,3(2H,4H)-dione] | 205 to 206 °C | 6.12 | 5.46 |  |  |  | 6.42 | 5.60 |  |  | 6.07 | < 4.30 | < 4.30 |  | 
O=C1NCc2ccccc2C1=CNc1ccc(CN2CCCCC2)cc1 [Example 162, 4-[(4-Piperidin-1-ylmethyl-phenylamino)-methylene]-1,4-dihydro-2H-isoquinolin-3-one] | 188 to 189 °C (dec.) |  |  |  |  |  |  |  | 5.41 | 5.36 | 4.73 | < 4.30 | < 4.30 | 4.64 | 5.04
